US20110124719A1, “COMPOSITION FOR PROMOTING PRODUCTION OF HYALURONIC ACID CONTAINING KAEMPFEROL AND QUERCETIN” (Amorepacific Corporation, priority 2004, published 2011)

Tests used:
Type in all cases: cell-based, human
[1] = test system: hyaluronan synthase 2 (HAS2); test: Quantitative reverse transcription PCR of HAS2 mRNA in HaCaT cells; details: treated 24 hours, expressed in treatment groups as well as the control group
Description: In order to examine an effect of increasing an expression of a HAS gene by kaempferol and quercetin in HaCaT which is a skin cell line of human epidermis, HaCaT cells were respectively treated with kaempferol and quercetin in several concentrations, then the HAS gene was subject to quantitative reverse transcription PCR so as to examine an expression of the HAS gene in a level of mRNA and thus changes of the HAS genes by kaempferol and quercetin were examined as follows. Human keratinocyte cell line, HaCaT cell, which was spontaneously immortalized, was used and obtained from Dr. N. E. Fusenig (Deutsches Krebsforschungszentrum (DKFZ), Heidelberg, Germany). […] A concentration of RNA was measured with a spectrophotometry method and a quality of RNA was checked with an agarose gel electrophoresis. It was examined through a quantitative reverse transcription PCR kaempferol and quercetin's influences on mRNA synthesis of hyaluronan synthase 1 (NAS1), hyaluronan synthase 2 (HAS2) and hyaluronan synthase 3 (HAS3), which are isoforms of hyaluronic acid synthase, as follows. Firstly, a RNA prepared and quantified in the above experimental example 1-2 was subject to a reverse transcription and then it was performed a quantitative PCR under the presence of primers specific for HAS1, HAS2 and HAS3 which are isoforms of hyaluronic acid synthase. […]

[2] = test system: hyaluronan synthase 3 (HAS3); test: Quantitative reverse transcription PCR of HAS3 mRNA in HaCaT cells; details: 24 hours
Description: In order to examine an effect of increasing an expression of a HAS gene by kaempferol and quercetin in HaCaT which is a skin cell line of human epidermis, HaCaT cells were respectively treated with kaempferol and quercetin in several concentrations, then the HAS gene was subject to quantitative reverse transcription PCR so as to examine an expression of the HAS gene in a level of mRNA and thus changes of the HAS genes by kaempferol and quercetin were examined as follows. Human keratinocyte cell line, HaCaT cell, which was spontaneously immortalized, was used and obtained from Dr. N. E. Fusenig (Deutsches Krebsforschungszentrum (DKFZ), Heidelberg, Germany). Firstly, the cells were cultured in a Dulbecco's modified Eagle's media (DMEM) containing 10% fetal bovine serum (HyClone), sodium bicarbonate 3.6 g/l and antibody (streptomycin 100 μg and penicillin 100 IU/l) (Life Technologies, Inc.) under proper culture conditions (37° C., 5% CO2, 95% air). […] A control group was diluted in a ratio of 1:1,000 and cultured in a medium supplemented with vehicle (dimethylsulfoxide, DMSO). It was not observed any effects of DMSO influencing on growth and differentiation in the control group culture. The HaCaT cells cultured in the experimental example 1-1 were cleaned two times with a phosphate-buffered saline (Life Technologies, Inc.) and RNAs of all cells were separated using a trizol reagent (GibcoBRL Life Technologies, Grand Island, N.Y.) according to manufacturer's instructions. A concentration of RNA was measured with a spectrophotometry method and a quality of RNA was checked with an agarose gel electrophoresis. It was examined through a quantitative reverse transcription PCR kaempferol and quercetin's influences on mRNA synthesis of hyaluronan synthase 1 (NAS1), hyaluronan synthase 2 (HAS2) and hyaluronan synthase 3 (HAS3), which are isoforms of hyaluronic acid synthase, as follows. Firstly, a RNA prepared and quantified in the above experimental example 1-2 was subject to a reverse transcription and then it was performed a quantitative PCR under the presence of primers specific for HAS1, HAS2 and HAS3 which are isoforms of hyaluronic acid synthase. […]

HaCaT cells [3] = test: HA-ELISA of hyaluronic acid discharged into culture medium of HaCaT cells; details: 24 hours
Method: Firstly, the cells were cultured in a Dulbecco's modified Eagle's media (DMEM) containing 10% fetal bovine serum (HyClone), sodium bicarbonate 3.6 g/l and antibody (streptomycin 100 μg and penicillin 100 IU/l) (Life Technologies, Inc.) under proper culture conditions (37° C., 5% CO2, 95% air). The medium was replaced every three days and the cells were secondary-cultured in a division ratio of 1:5 as soon as the density thereof reached the highest. 1×10^5 cells per 75 cm^2 of a tissue culture flask were aliquot 72 hours before the cell were treated with kaempferol or quercetin, and then cultured in a medium containing 10% fetal bovine serum for 48 hours. Then, the cells were cultured in a serum-free medium for 24 hours, treated with kaempferol and quercetin in concentrations of […], 1 μM and 10 μM, respectively and then cultured for 24 hours. A control group was diluted in a ratio of 1:1,000 and cultured in a medium supplemented with vehicle (dimethylsulfoxide, DMSO).
In order to examine that a production of hyaluronic acid was actually promoted by kaempferol and quercetin, a culture medium of HaCaT cell, which is a skin cell line of human epidermis was treated with kaempferol and quercetin, in several concentrations. After that, an amount of hyaluronic acid that synthesis of hyaluronic acid is promoted and then the acid is discharged into the medium was quantified using HA-ELISA Kit.
To perform the ELISA, it was purchased a Hyaluronan Enzyme-Linked ImmunoSorbent Assay Kit (HA-ELISA, Product No.: K-1200) available from Echelon company. The medium recovered through the above cell cultivation was subject to the HA-ELISA Kit according to manufacturer's instructions, thereby quantifying the synthesis amount of hyaluronic acid that was synthesized in HaCaT cell by kaempferol and quercetin and then discharged into the medium. The control group was diluted in a ratio of 1:1,000 and then cultured in a medium supplemented with vehicle (dimethylsulfoxide, DMSO).
(§1) A significance was considered, based on p=0.05 and data was shown with mean±standard error.

HaCaT cells [4] = test: MTT assay of cytotoxicity in HaCaT cells; details: 24 hours
Method: In order to examine cytotoxicity of kaempferol and quercetin in HaCaT, which is a skin cell line of human epidermis, according to the concentrations thereof, HaCaT was treated with kaempferol and quercetin in several concentrations and then degrees of cytotoxicity were quantified through a MTT assay.
HaCaT of human keratinocyte cell line, which was spontaneously immortalized, was used and obtained from Dr. N. E. Fusenig (Deutsches Krebsforschungszentrum (DKFZ), Heidelberg, Germany). The cells were cultured in a Dulbecco's modified Eagle's media (DMEM) containing 10% fetal bovine serum (HyClone), sodium bicarbonate 3.6 g/l and antibody (streptomycin 100 μg and penicillin 100 IU/l) (Life Technologies, Inc.) under proper culture conditions (37° C., 5% CO2, 95% air). The medium was replaced every three days and the cells were secondary-cultured in a division ratio of 1:5 as soon as the density thereof reached the highest. 1×10^4 cells per well of a tissue culture flask 96 well plate were aliquot 72 hours before the cells were treated with kaempferol or quercetin, and then cultured in a medium containing 10% fetal bovine serum for 48 hours. Then, the cells were cultured for 24 hours in a serum-free medium, treated with kaempferol and quercetin in concentrations of 0.1 μM, 1 μM and 10 μM, respectively and then cultured for 24 hours. A control group was diluted in a ratio of 1:1,000 and cultured in a medium supplemented with vehicle (dimethylsulfoxide, DMSO).
as §1

SMILES | expression of HAS2 hyaluronic acid synthase gene (mRNA) [1] | HAS3 mRNA expression compared to the control group ([2]; 1 μM) | HAS3 mRNA expression compared to the control group ([2]; 10 μM) | increase of hyaluronic acid synthesis compared to the control group (HaCaT cells [3]; 1 μM) | increase of hyaluronic acid synthesis compared to the control group (HaCaT cells [3]; 10 μM) | cytotoxicity compared to the control group (MTT) (HaCaT cells [4]; 0.1 μM) | cytotoxicity compared to the control group (MTT) (HaCaT cells [4]; 1 μM) | cytotoxicity compared to the control group (MTT) (HaCaT cells [4]; 10 μM)
O=c1c(O)c(-c2ccc(O)cc2)oc2cc(O)cc(O)c12 [kaempferol, Kaempferol] | expressed | increased | increased | 7% | 8% | did not exhibit cytotoxicity | did not exhibit cytotoxicity | did not exhibit cytotoxicity
O=c1c(O)c(-c2ccc(O)c(O)c2)oc2cc(O)cc(O)c12 [quercetin] | expressed | increased | increased | 11% | 24% | did not exhibit cytotoxicity | did not exhibit cytotoxicity | did not exhibit cytotoxicity
